Data on one compound can be found in PMC10058894, “Bioactive C21 Steroidal Glycosides from Euphorbia kansui Promoted HepG2 Cell Apoptosis via the Degradation of ATP1A1 and Inhibited Macrophage Polarization under Co-Cultivation” (Molecules, 2023).

Assay [1] has as its system HepG2 and RAW264.7 co-cultivation. The assay is described as follows: Western blot in HepG2 and RAW264.7 co-cultivation. It is filed as cell-based. The settings on record: 25 μmol∙L−1, 48 h. The protocol: L02, HepG2, and RAW264.7 cells were incubated in DMEM (Gibco, Carlsabad, CA, USA). Then, they were supplemented with 10% FBS (Gibco, Carlsbad, CA, USA) and 100 IU/mL streptomycin-penicillin (Solarbio, Beijing, China) in a CO2 chamber at 37 °C and 95% humidity. The morphology of the cells was observed using a reversed microscope (Olympus Corporation, Shinjuku, Japan) at × 200 magnifications. The Tissue Culture Plate Insert (LABSELECT, Beijing, China, Lot: 20421087A) chambers were used for HepG2 and RAW264.7-cell co-cultivation.
Protein samples were prepared using a RIPA lysis buffer. The concentration of the protein was analyzed using a nucleic acid and protein microanalyzer (Molecular Devices, San Jose, CA, USA). SDS–PAGE was performed to separate the proteins, which were then electrotransferred onto a PVDF membrane. The membrane was incubated with antibodies at 4 °C overnight. Next, the membrane was washed and incubated with an HRP-conjugated secondary antibody (Beyotime, BeiJing, China). Finally, signals were detected by the ECL method (Beyotime, BeiJing, China) and analyzed using ImageJ software.
RAW264.7 cells (1.5 × 10^5 cells/well) and HepG2 cells (4 × 10^5 cells/well) were incubated in a Tissue Culture Plate Insert (LABSELECT, Hangzhou, China) at 37 °C and 95% humidity. Raw264.7 cells were incubated in 12-well plates, and HepG2 cells were incubated in Transwell chambers. After 24 h, the cells were treated with the compound for 48 h. Then, the chamber was discarded, and RAW264.7 cells were washed twice with PBS and a fresh medium. Next, 1.5 mL/well and 100 μL/well FluoSpheresTM carboxylate (Invitrogen, Carlsbad, CA, USA) were added to the medium for 2 h in the dark. Cells were washed twice with PBS, harvested, and then resuspended in 0.5 mL PBS. Finally, the cells were measured by a FACSCalibur (Becton Dickinson, Franklin Lakes, NJ, USA). Data were analyzed using FlowJo software.
On the technique in general: Immunoblotting shows a protein as a band on a membrane.

For assay [2] the test system is unchanged. The assay is described as follows: Cytokine levels by ELISA in co-cultivation. It counts as cell-based. Conditions: 25 μmol∙L−1, 48 h. On the technique in general: An ELISA detects its analyte on a solid surface through an enzyme-linked reagent.

As to `C[C@H](O)[C@]1(O)CC[C@@]2(O)[C@]1(C)[C@H](OC(=O)/C=C/c1ccccc1)C[C@@H]1[C@@]3(C)CC[C@H](O[C@H]4C[C@H](O)[C@H](O)[C@@H](C)O4)CC3=CC[C@]12O` [Compound 5, Cynsaccatol L], in assay [1] (vs C and C1 groups), the Bcl2 expression entry is reported as “down-regulating”; the “expression of cleaved-caspase 3, cleaved-caspase 8, LC3B, p62 and Bax” value was “significantly upregulate”. The “expression of CD206 and ARG-1” value in assay [1] (western blot) is given as “downregulated”. Moreover, the “levels of TNF-α and IFN-γ” value in assay [2] (vs C0, C1 and C2 groups) is “significantly upregulate”. Also, the “levels of IL-6 and IL-10” value in assay [2] (vs C0 group) is reported as “decreased significantly”.
